Results from patent US20250101038A1, “COMPOUNDS” (priority 2021, published 2025).
Values joined by “and” are separate entries in the source; they are usually repeats but may differ in a detail not shown here. Equal values may be shown once. Read-outs that look alike come from different tables or passages of the source.

Assays:
[1] = target: T1, 5-HT2C receptor (Homo sapiens, UniProt P28335); assay: cell-based; settings: agonist activity, Ca2+ flux, HEK293 cells
T1 construct: host or cells: HEK293
T1 sequence (P28335 33-458): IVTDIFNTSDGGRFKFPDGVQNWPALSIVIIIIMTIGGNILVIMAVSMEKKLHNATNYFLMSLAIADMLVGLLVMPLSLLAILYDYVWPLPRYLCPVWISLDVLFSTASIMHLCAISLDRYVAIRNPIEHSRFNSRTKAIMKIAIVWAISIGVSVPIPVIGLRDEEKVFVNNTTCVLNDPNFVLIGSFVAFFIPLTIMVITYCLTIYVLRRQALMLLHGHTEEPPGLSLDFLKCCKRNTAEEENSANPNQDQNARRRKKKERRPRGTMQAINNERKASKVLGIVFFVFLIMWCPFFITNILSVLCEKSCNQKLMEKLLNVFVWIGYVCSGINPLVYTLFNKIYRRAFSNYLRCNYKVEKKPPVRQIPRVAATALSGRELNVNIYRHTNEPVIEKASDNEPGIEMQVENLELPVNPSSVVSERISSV

[2] = target: T2, 5-HT2A receptor (Homo sapiens, UniProt P28223); assay: FLIPR Ca2+ flux functional assay, 5-HT2A; assay type: cell-based; settings: agonist activity, Ca2+ flux, HEK293 cells
T2 construct: host or cells: HEK293
T2 sequence (P28223 whole entry): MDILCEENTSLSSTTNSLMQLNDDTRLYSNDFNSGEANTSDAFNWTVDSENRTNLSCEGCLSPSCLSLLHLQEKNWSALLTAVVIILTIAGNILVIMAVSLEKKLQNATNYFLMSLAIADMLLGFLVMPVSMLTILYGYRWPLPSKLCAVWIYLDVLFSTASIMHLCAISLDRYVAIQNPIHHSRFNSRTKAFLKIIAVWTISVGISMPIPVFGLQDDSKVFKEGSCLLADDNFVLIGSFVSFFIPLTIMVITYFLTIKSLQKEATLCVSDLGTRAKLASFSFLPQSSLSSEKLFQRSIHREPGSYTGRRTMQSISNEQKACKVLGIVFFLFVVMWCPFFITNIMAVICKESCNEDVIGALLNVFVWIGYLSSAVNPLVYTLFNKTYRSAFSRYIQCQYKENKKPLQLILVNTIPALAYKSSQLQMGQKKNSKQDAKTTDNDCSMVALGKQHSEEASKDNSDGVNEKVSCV

[3] = In vivo pharmacokinetics, plasma and brain exposure after IP dosing; set-up: species or system male C57BL/6 mice
Experimental: The systemic exposure of selected examples was studied in non-fasted male C57BL/6 mice weighing between 18.9-25.5 g. Mice had access to food and water ad libitum throughout the pre- and post-dose sampling period.
On the day of dosing, the formulation of each compound was prepared by dissolving solid compound in phosphate buffer saline (50 mM) using vortexing, creating colourless solutions (pH 6.4-6.5) for each compound.
Compounds were dosed to mice by IP injection (10 mL/kg dose volume via a 27G needle; n=9 mice per compound) and blood samples were collected at 5 and 30 min; 1, 2 and 4 h post-dose (n=3 mice per time point for each compound). A maximum of three blood samples were obtained from each mouse, with plasma samples being taken via submandibular bleed (approximately 120 μL). Once collected, blood samples were centrifuged immediately, supernatant plasma was removed, and stored at −80° C. until analysis by LCMS. In addition, at the 5 and 30 min and 4 h post-dose time points, the whole brain was rapidly removed from the carcass soon after the blood collection. The whole brains were blotted to remove excess blood, placed into pre-weighed polypropylene vials, and weighed. The brains were snap frozen in dry ice and subsequently stored frozen (−80° C.) until analysis.
Concentrations of test compound in plasma and tissue samples were determined using an LCMS/MS method validated for linearity, accuracy, precision, matrix factor and recovery (Table 2). Test compound standard solutions were diluted from a concentrated stock solution (32 mM in H2O) using 50% can in H2O (v/v) and a calibration curve was prepared in a matched matrix to the test samples.
Plasma: The plasma calibration curve was prepared by spiking aliquots of blank mouse plasma (25 μL) with test compound standard solutions (5 μL) and internal standard solution (5 μL of diazepam, 5 μg/mL in 50% acetonitrile in water). Test plasma samples (25 μL) were thawed, mixed, and then spiked with internal standard solution (5 μL). Plasma protein precipitation was performed by addition of acetonitrile (3-fold volume ratio) and thorough vortex mixing. Samples were centrifuged (RCF=9391×g) for 3 minutes and the supernatant (90 μL) was collected for analysis.
Tissue: Pre-weighed tissue samples (brain) were homogenised using a glass rod in buffer containing an EDTA/potassium fluoride solution (0.1 M/4 mg/mL) as a stabilisation cocktail to minimise the potential for ex vivo degradation (3 mL cocktail/g tissue). The tissue homogenate was briefly centrifuged (RCF=79×g) for 10 seconds to separate the foam layer before transferring an aliquot of the tissue homogenate (200 μL) to a fresh Eppendorf tube for sample extraction. Calibration standards were prepared by spiking blank brain homogenate (200 μL) with the solution standards (10 μL) and the internal standard (10 μL). Study samples were similarly prepared, except that acetonitrile (10 μL) was added instead of solution standards to maintain the same volume. Protein precipitation was carried out by the addition of a 3-fold volume of acetonitrile, followed by vortex mixing and centrifugation (RCF=9391×g) for 3 min to recover the supernatant for analysis.
Replicate analysis: Triplicate analytical replicate (ARs) samples were prepared similarly to the standards for each sample type at three concentrations (50, 500 and 2,000 ng/ml) and repeat injections of these ARs were included throughout the analytical run to assess assay performance. The extraction of the test compound from the standards and ARs were conducted as described above.

[4] = target: T3, 5-HT2B receptor (Homo sapiens, UniProt P41595); assay: cell-based; settings: agonist activity, Ca2+ flux, CHO-K1 cells
T3 construct: host or cells: CHO-K1
T3 sequence (P41595 whole entry): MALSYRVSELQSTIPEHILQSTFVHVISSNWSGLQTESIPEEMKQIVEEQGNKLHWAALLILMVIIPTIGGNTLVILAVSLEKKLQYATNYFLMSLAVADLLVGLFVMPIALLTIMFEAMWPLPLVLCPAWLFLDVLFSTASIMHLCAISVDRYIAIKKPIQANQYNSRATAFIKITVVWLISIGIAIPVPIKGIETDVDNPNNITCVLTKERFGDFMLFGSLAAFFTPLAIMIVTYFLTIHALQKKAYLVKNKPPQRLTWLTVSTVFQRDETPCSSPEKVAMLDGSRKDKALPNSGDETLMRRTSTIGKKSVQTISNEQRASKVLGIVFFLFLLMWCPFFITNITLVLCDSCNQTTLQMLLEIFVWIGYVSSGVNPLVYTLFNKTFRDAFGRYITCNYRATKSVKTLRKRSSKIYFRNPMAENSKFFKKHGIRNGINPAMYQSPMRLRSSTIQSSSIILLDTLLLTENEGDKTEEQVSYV

[5] = 0.083 h, IP 10 mg/kg, individual mouse, 10 mg/kg
[6] = 0.5 h, IP 10 mg/kg, individual mouse, 10 mg/kg
[7] = 4 h, IP 10 mg/kg, individual mouse, 10 mg/kg
[8] = mouse, plasma, male C57BL/6 mice, IP 10 mg/kg

Question: Which results are given for `CCN(C)CCc1c[nH]c2cc(C)c(OC)cc12` [Example P-42, N-ethyl-2-(5-methoxy-6-methyl-1H-indol-3-yl)-N-methylethan-1-amine]?
Answer: Emax [1]: 85.8%; EC50 ([1]; read-out: 5-HT2C EC50): 68.5 nM; Emax [2]: 88.2%; EC50 ([2]; read-out: 5-HT2A EC50): 26.5 nM; B:P Ratio, Individual [3, 5]: 3.8 and 7.1 and 2.0; Plasma Concentration, Individual [3, 5]: 1760 nM and 3440 nM; concentration at 0.5 h ([3]; 0.083 h, IP 10 mg/kg, individual mouse, 10 mg/kg, read-out: Brain Parenchyma Concentration, Individual): 12600 nM and 7010 nM; B:P Ratio, Individual [3, 6]: 20 and 11; Plasma Concentration, Individual [3, 6]: 1880 nM and 1820 nM; concentration at 0.5 h ([3]; 0.5 h, IP 10 mg/kg, individual mouse, 10 mg/kg, read-out: Brain Parenchyma Concentration, Individual): 37300 nM and 19900 nM; B:P Ratio, Individual [3, 7]: 18 and 14 and 8.2; Plasma Concentration, Individual [3, 7]: 38.4 nM and 20.9 nM; concentration at 0.5 h ([3]; 4 h, IP 10 mg/kg, individual mouse, 10 mg/kg, read-out: Brain Parenchyma Concentration, Individual): 408 nM and 530 nM and 171 nM; concentration at 0.083 h ([3]; male, C57BL/6, mouse, brain, ip, 10 mg/kg, 0.083 h, individual mouse, read-out: Brain Parenchyma Concentration, Individual): 10100 nM; concentration at 0.083 h ([3]; male, C57BL/6, mouse, brain, ip, 10 mg/kg, 0.083 h, n = 3, read-out: Brain Parenchyma Concentration, Mean ± SD): 9900 ± 2790 nM; concentration at 0.5 h ([3]; male, C57BL/6, mouse, brain, ip, 10 mg/kg, 0.5 h, individual mouse, read-out: Brain Parenchyma Concentration, Individual): 21300 nM; concentration at 0.5 h ([3]; male, C57BL/6, mouse, brain, ip, 10 mg/kg, 0.5 h, n = 3, read-out: Brain Parenchyma Concentration, Mean ± SD): 26200 ± 9680 nM; concentration at 4 h ([3]; male, C57BL/6, mouse, brain, ip, 10 mg/kg, 4 h, n = 3, read-out: Brain Parenchyma Concentration, Mean ± SD): 370 ± 182 nM; Kp at 0.083 h ([3]; male, C57BL/6, mouse, brain/plasma, ip, 10 mg/kg, 0.083 h, n = 3, read-out: B:P Ratio, Mean ± SD): 4.3 ± 2.6; Kp at 0.5 h ([3]; male, C57BL/6, mouse, brain/plasma, ip, 10 mg/kg, 0.5 h, individual mouse, read-out: B:P Ratio, Individual): 18; Kp at 0.5 h ([3]; male, C57BL/6, mouse, brain/plasma, ip, 10 mg/kg, 0.5 h, n = 3, read-out: B:P Ratio, Mean ± SD): 16 ± 4.6; Kp at 4 h ([3]; male, C57BL/6, mouse, brain/plasma, ip, 10 mg/kg, 4 h, n = 3, read-out: B:P Ratio, Mean ± SD): 13 ± 5; concentration at 0.083 h ([3]; male, C57BL/6, mouse, plasma, ip, 10 mg/kg, 0.083 h, individual mouse, read-out: Plasma Concentration, Individual): 2650 nM; concentration at 0.083 h ([3]; male, C57BL/6, mouse, plasma, ip, 10 mg/kg, 0.083 h, n = 3, read-out: Plasma Concentration, Mean ± SD): 2620 ± 840 nM; concentration at 0.5 h ([3]; male, C57BL/6, mouse, plasma, ip, 10 mg/kg, 0.5 h, individual mouse, read-out: Plasma Concentration, Individual): 1200 nM; concentration at 0.5 h ([3]; male, C57BL/6, mouse, plasma, ip, 10 mg/kg, 0.5 h, n = 3, read-out: Plasma Concentration, Mean ± SD): 1640 ± 376 nM; concentration at 4 h ([3]; male, C57BL/6, mouse, plasma, ip, 10 mg/kg, 4 h, individual mouse, read-out: Plasma Concentration, Individual): 22.5 nM; concentration at 4 h ([3]; male, C57BL/6, mouse, plasma, ip, 10 mg/kg, 4 h, n = 3, read-out: Plasma Concentration, Mean ± SD): 27.3 ± 9.7 nM; Cmax [3, 8]: 2620 nM; Tmax [3, 8]: 4.98 min; AUC(0-inf) ([3]; mouse, plasma, male C57BL/6 mice, IP 10 mg/kg, read-out: Plasma AUC0-inf): 2.36 µM·h; half-life ([3]; mouse, male C57BL/6 mice, IP 10 mg/kg, plasma, read-out: Apparent T1/2 (converted)): 36 min; Emax [4]: 8.39%; EC50 ([4]; read-out: 5-HT2B EC50): > 10000 nM
